Common to all, as to experiment: NCI-60 cell line screen, 48 h
The test system of test [1] is 786-0 renal.
For test [2], the system named is HCC-2998 colon.
For test [3], the system named is HL-60(TB) leukemia.
Test [4] deals with IGROV1 ovarian.
The subject of test [5] is KM12 colon.
The test system of test [6] is M14 melanoma.
Test [7] deals with OVCAR-4 ovarian.
The subject of test [8] is SF-539 CNS.
Test [9] concerns SK-MEL-5 melanoma.
For test [10], the system named is U251 CNS.

The record followed here is PubChem BioAssay (NCI).

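A five-concentration, 48-hour dose response in 96-well plates underlies each endpoint, interpolated linearly between surrounding concentrations. Abbreviation: GI50, concentration required for 50% inhibition of growth. The concentration for full growth arrest is given as TGI.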

For the molecule `CC(C)(C)n1c(=O)n(C(=O)C(Cl)(Cl)Cl)n(C(=O)C(Cl)(Cl)Cl)c1=O`, the TGI in [1], in test [2], in [3], in [4], in [5] and in test [6] was above 100 µM throughout. The TGI in [7], in [8], in [9] and in test [10] was above 100 µM in each case.

Regarding `CC(=O)NC1=C(C)C(=O)c2c(nc3n2CCC3O)C1=O` (stereo not given), the TGI is above 100 µM in [1]; above 100 µM in test [2]; 44.2 µM in test [3]; above 89.7 µM in test [4]; above 100 µM in test [5]; above 100 µM in [6]. The TGI in test [7] is 29.7 µM; in test [8], 51.3 µM; in test [9] it was above 100 µM; in [10], above 100 µM.

As to `CC(=O)NC1C(OCc2ccccc2)OC(CO)C(O)C1OCC(=O)NC(C)C(=O)NC(CCC(=O)NCCCCCNc1c2ccccc2nc2cccc([N+](=O)[O-])c12)C(N)=O` (stereo not given), the TGI is 0.000206 µM in test [1]; below 0.0001 µM in [2]; 0.0455 µM in [3]; below 0.0001 µM in test [5]; below 0.0001 µM in [6]; 0.00615 µM in [7]. Besides, the TGI is 0.00116 µM in [8], 0.00124 µM in [9] and below 0.0001 µM in test [10]. Also, the GI50 in test [4] is 0.0124 µM.

Regarding `CCOC(=O)C1=C(C)C(C(=O)OC)/C(=C/c2cccc3cccnc23)C1=O` (stereo not given), the TGI in test [1], in test [2], in test [3], in test [4], in [5] and in [6] was above 10 µM each time. Besides, the TGI in [7], in test [8], in test [9] and in [10] was above 10 µM each time.

Consider `CC(C)[C@H]1NC(=O)[C@H]2N=C(O[C@@H]2C)[C@@H]2CCCN2C(=O)[C@H](Cc2ccccc2)NC(=O)[C@@H]2CSC(=N2)[C@@H](Cc2ccccc2)NC(=O)[C@@H]2CSC1=N2`, for which the TGI in test [1], in test [2], in test [3], in [4], in test [5] and in [6] was above 100 µM in each case. Also, the TGI in test [7], in [8], in [9] and in [10] was above 100 µM each time.

Turning to `COc1ccc(-c2nc(-c3cc4ccccc4oc3=O)cs2)cc1`, the TGI in [1], in test [2], in test [3], in test [4], in [5] and in test [6] was above 100 µM throughout. The TGI is above 100 µM in test [7], above 100 µM in [8], above 100 µM in [9] and 47.4 µM in test [10].

On to `COc1ccc2c(c1)nc1n2C(N)=Nc2ccccc2S1`, for which the TGI was above 34.1 µM in test [1]; above 100 µM in [2]; 6.95 µM in test [3]; above 100 µM in [4]; 34.2 µM in test [5]; above 80.6 µM in test [6]. Further, the TGI in [7] is above 100 µM; in test [8] it was above 100 µM; in test [9], above 61.9 µM; in [10], above 100 µM.

Regarding `O=C(c1ccccc1)c1c(C(F)(F)F)n([O-])c2cc(Cl)c(Cl)cc2[n+]1=O`, the TGI in test [1] was 0.959 µM; in test [2], 4.11 µM; in test [3], 2.06 µM; in [4], 0.984 µM; in test [5], 1.08 µM; in [6], 3.2 µM. The TGI in [7] was 3.12 µM; in test [8], 3.88 µM; in [9] it was 5.13 µM; in test [10], 2.71 µM.

For `COC(=O)/C=C\C(C#N)(C#N)N=Cc1ccc(C)s1`, the TGI in [1] was 3.2 µM; in test [2] it was 32.9 µM; in [3] it was 5.16 µM; in test [4], 4.94 µM; in test [5] it was 31.8 µM; in test [6], 3.5 µM. The TGI in [7] was 13.1 µM; in test [8], 10.1 µM; in test [9], 19.7 µM; in test [10] it was 28.8 µM.

Turning to `CCN(CC)C(=S)N/N=C/c1ccccn1`, the TGI in [1] was 19 µM; in [2] it was above 100 µM; in [3], 4.09 µM; in test [4], 11.7 µM; in test [5] it was above 100 µM; in test [6] it was 0.349 µM. The TGI in [7] is above 100 µM; in test [8], 0.377 µM; in test [9], 0.542 µM; in [10], above 100 µM.

For `CC1CC[C@@]2(OC1)O[C@H]1C[C@H]3[C@@H]4CC[C@H]5C[C@@H](OC6OC(CO)C(OC7OC(CO)C(OC8OC(CO)C(O)C(OC9OC(C)C(OC%10OC(C)C(O)C(O)C%10O)C(O)C9O)C8OC8OCC(O)C(O)C8O)C(O)C7O)C(O)C6O)CC[C@]5(C)[C@H]4CC(=O)[C@]3(C)[C@H]1[C@@H]2C` (stereo not given in full), the TGI in [1] worked out at 54.9 µM; in test [2], 32.8 µM; in [3], 27.6 µM; in test [4], 37.4 µM; in [5] it was 36.1 µM; in [6], 41.7 µM. For the same molecule, the TGI in test [7] stood at 32.7 µM; in test [8] it was 28.5 µM; in [9], 30.4 µM; in test [10] it was 33.3 µM.

For `COc1ccc(/C=C2\CC3C4CC=C5C[C@@H](O)CC[C@]5(C)C4CC[C@]3(C)\C2=N\O)cc1OC` (stereo not given in full), the TGI in test [1], in test [2], in test [3], in test [4], in [5] and in [6] was above 100 µM in each case. Moreover, the TGI in [7] was above 100 µM; in test [8], above 100 µM; in test [9] it was 45.1 µM; in test [10], above 100 µM.
